Results on four compounds are retold here after PMC5077133, “Towards Development of Small Molecule Lipid II Inhibitors as Novel Antibiotics” (PLoS ONE, 2016).

The structures appear in SMILES notation.

Data set [1] can be described thus: Lipid II binding by Surface Plasmon Resonance. To be noted: SPR, immobilized 3-Lipid II, 25°C. The procedure: Short-chain water-soluble Lipid II containing a lipid tail of three isoprene units was generated and purified essentially as described. Typically, M. flavus vesicles (120 μmol lipid-Pi) were incubated together with 500 μmol UDP-GlcNAc, 500 μmol UDP-MurNAC-pentapeptide and 400 μmol farnesyl phosphate in 100 mM Tris-HCl pH 8.0, 5 mM MgCl2. The incubation lasted two hours at room temperature for 3-P. The synthesis of 3-Lipid II was followed using RP-8 reversed phase TLC (Merck) developed in 75% methanol. For purification, the membranes were removed by centrifugation at 40,000 x g and the supernatant was collected and loaded on a C18 HPLC column and eluted with a linear gradient from 50 mM ammonium bicarbonate to 100% methanol in 30 minutes. Farnesyl-Lipid II (3-Lipid II) eluted at approximately 60% methanol. Its identity was confirmed by mass spectroscopy. Surface Plasmon Resonance binding experiments were carried out on a BIAcore T100 system (BIAcore Inc., Piscataway, NY) at 25°C. The assay buffer was 10 mM HEPES, 150 mM NaCl, 0.05% surfactant P20, pH 7.4 (± 3 mM EDTA) supplemented with 10% DMSO. 3-Lipid II (50 RUs) was immobilized on CM5 sensor chips using the amine-coupling chemistry recommended by the manufacturer. For initial determination of binding, compounds were introduced into the flow-cells (30 μl/min) in the running buffer at 10 μM. Resonance signals were corrected for nonspecific binding by subtracting the background of the control flow-cell. After each analysis, the sensor chip surfaces were regenerated with 50 mM NaOH for 30 s at a flow rate 100 μl/min, and equilibrated with the buffer prior to next injection. For binding kinetics studies, binding isotherms were analyzed with manufacturer-supplied software for BIAcore T100.

Data set [2] concerns E. aerogenes ATCC 13048. Put plainly: Antibacterial activity (MIC, broth dilution). The following applies: CLSI. In kind it is cell-based. The procedure: (§1) Determination of the Minimal Inhibitory Concentrations (MIC) by dilution was carried out by broth dilution according to CLSI standards.
For orientation: In broth dilution the organism is exposed to a series of concentrations in liquid medium.

Data set [3] relates to E. faecium F118 (VRE). Put plainly: Antibacterial activity (MIC, broth dilution). To be noted: CLSI, in µg/mL. Format: cell-based. On the procedure:
as §1

The subject of data set [4] is S. aureus MRSA 1094. Put plainly: Antibacterial activity (MIC, broth dilution). Format: cell-based. To be noted: CLSI. On the procedure:
as §1

Data set [5] concerns S. aureus HFH-30123 (MRSA). Put plainly: Antibacterial activity (MIC, broth dilution). The following applies: CLSI. In kind it is cell-based. The procedure: as §1
The subject of data set [6] is E. cloacae ATCC 13047. Put plainly: Antibacterial activity (MIC, broth dilution). To be noted: CLSI. In kind it is cell-based. On the procedure:
as §1

Data set [7] has as its system P. aeruginosa ATCC 27853. Put plainly: Antibacterial activity (MIC, broth dilution). In kind it is cell-based. The following applies: CLSI. On the procedure:
as §1

The test system of data set [8] is K. pneumoniae NR-15410 (KPC). Put plainly: Antibacterial activity (MIC, broth dilution). Format: cell-based. The following applies: CLSI. On the procedure: as §1
Data set [9] concerns K. pneumoniae NR-15411 (KPC). Put plainly: Antibacterial activity (MIC, broth dilution). Format: cell-based. The following applies: CLSI. The procedure:
as §1

Data set [10] relates to P. aeruginosa PA01. Put plainly: Antibacterial activity (MIC, broth dilution). To be noted: CLSI. In kind it is cell-based. The procedure:
as §1

Data set [11] concerns P. aeruginosa X13273. Put plainly: Antibacterial activity (MIC, broth dilution). Format: cell-based. To be noted: CLSI, in µg/mL. The procedure: as §1
Data set [12] deals with E. faecium EF1509 (VRE). Put plainly: Antibacterial activity (MIC, broth dilution). In kind it is cell-based. The following applies: CLSI, in µg/mL. On the procedure: as §1
Data set [13] has as its system A. baumanii ATCC 19606. Put plainly: Antibacterial activity (MIC, broth dilution). Format: cell-based, Acinetobacter baumanii. To be noted: CLSI, in µg/mL.
Source text: Staphylococcus aureus ATCC 29213, Escherichia coli ATCC 25922, Enterococcus faecalis ATCC 29212, Streptococcus pneumonia ATCC 49619 and Acinetobacter baumanii ATCC 19606 were obtained from Microbiologics (St. Cloud, MN). E. faecalis ATCC 51575, ATCC 51299 and REMEL C99707 and E. faecium ATCC 51559 (MDR), REMEL IH79985 and REMEL C110914 were generously provided by the Laboratory of Pathology, University of Maryland Baltimore School of Medicine. Unless stated otherwise, chemicals and reagents were purchased from Sigma.
as §1

Data set [14] relates to HeLa cells. Put plainly: Cytotoxicity against mammalian cells (MTS assay). Format: cell-based. The procedure: The cytotoxicity concentration of antibacterial compounds that produces half maximal decrease in viability (CC50) against mammalian cells (HeLa, ATCC CCL-2.2) was determined as described. The effect of compounds on HeLa cell viability was assessed in triplicate by measuring the mitochondrial activity using MTS assays according to the manufacturer’s instructions (Cell Titer 96 proliferation assay, Promega). The cells were incubated for 72 hours in RPMI1640 medium containing the compounds at final concentrations ranging from 64 to 0.125 μg/ml. CC50 was determined using a standard curve of serially diluted untreated cells in each experiment.
A general note: Formazan colour is commonly taken as a measure of viable cells.

In the case of `Cc1ccc(-c2cc(/C=C/c3cn(C)c4ccccc34)[o+]c(-c3ccc(C)c(C)c3)c2)cc1C.F[B-](F)(F)F` [6jc66-4], the dissociation constant Kd in data set [1] was determined as 27.9 ± 2 µM. In data set [2], the Antibacterial activity (MIC) E. aerogenes ATCC 13048 was at least 64 µg/mL. In addition, the “Antibacterial activity (MIC) E. faecium F118 (VRE)” value in [3] is 4. This compound had an Antibacterial activity (MIC) S. aureus MRSA 1094 in data set [4] of 2 µg/mL. Moreover, in [5], the Antibacterial activity (MIC) S. aureus HFH-30123 (MRSA) was determined as 2 µg/mL. For the same compound, the Antibacterial activity (MIC) E. cloacae ATCC 13047 in data set [6] was at least 64 µg/mL. This compound yielded an Antibacterial activity (MIC) P. aeruginosa ATCC 27853 in data set [7] of at least 64 µg/mL. Also, the Antibacterial activity (MIC) K. pneumoniae NR-15410 (KPC) in data set [8] came out at 64 µg/mL. The same compound yielded an Antibacterial activity (MIC) K. pneumoniae NR-15411 (KPC) in data set [9] of at least 64 µg/mL. The Antibacterial activity (MIC) P. aeruginosa PA01 in data set [10] was at least 64 µg/mL. Further, the “Antibacterial activity (MIC) P. aeruginosa X13273” value in [11] was “>=64”. Also, the “Antibacterial activity (MIC) E. faecium EF1509 (VRE)” value in data set [12] is 2. In data set [13], the “Antibacterial activity (MIC) A. baumanii ATCC 19606” value stood at 64. Moreover, in data set [14], the “CC50% (72 h HeLa cells)” value was 0.92.

In turn, `CN(C)c1ccc(/C=C/c2cc(-c3ccc(C(C)(C)C)cc3)cc(-c3ccc(C(C)(C)C)cc3)[o+]2)cc1.F[B-](F)(F)F` [6jc-60-1] yielded a Kd in [1] of 37.9 ± 4 µM. For the same compound, the Antibacterial activity (MIC) E. aerogenes ATCC 13048 in data set [2] is at least 64 µg/mL. Also, the “Antibacterial activity (MIC) E. faecium F118 (VRE)” value in [3] is 8. In [4], the Antibacterial activity (MIC) S. aureus MRSA 1094 amounted to 8 µg/mL. Further, the Antibacterial activity (MIC) S. aureus HFH-30123 (MRSA) in data set [5] was found to be 8 µg/mL. Further, in data set [6], the Antibacterial activity (MIC) E. cloacae ATCC 13047 was at least 64 µg/mL. Moreover, the Antibacterial activity (MIC) P. aeruginosa ATCC 27853 in data set [7] was at least 64 µg/mL. This compound showed an Antibacterial activity (MIC) K. pneumoniae NR-15410 (KPC) in data set [8] of at least 64 µg/mL. In addition, the Antibacterial activity (MIC) K. pneumoniae NR-15411 (KPC) in data set [9] is at least 64 µg/mL. The Antibacterial activity (MIC) P. aeruginosa PA01 in data set [10] is at least 64 µg/mL. For the same compound, the “Antibacterial activity (MIC) P. aeruginosa X13273” value in [11] is on record as “>=64”. The “Antibacterial activity (MIC) E. faecium EF1509 (VRE)” value in [12] stood at 8. In addition, the “Antibacterial activity (MIC) A. baumanii ATCC 19606” value in data set [13] is given as “>=64”. In addition, the “CC50% (72 h HeLa cells)” value in data set [14] is “<.78125”.

In data set [1], `C(=C\c1c[nH]c2ccccc12)/c1cc(-c2ccccc2)cc(-c2ccccc2)[o+]1.F[B-](F)(F)F` [Jc-49-1] had a dissociation constant (Kd) of 0.17 ± 0.05 µM. Further, the Antibacterial activity (MIC) E. aerogenes ATCC 13048 in data set [2] was at least 64 µg/mL. Further, the “Antibacterial activity (MIC) E. faecium F118 (VRE)” value in data set [3] turned out to be 16. For the same compound, the Antibacterial activity (MIC) S. aureus MRSA 1094 in data set [4] came to 8 µg/mL. The compound further came in with an Antibacterial activity (MIC) S. aureus HFH-30123 (MRSA) in data set [5] of 8 µg/mL. In [6], this compound registered an Antibacterial activity (MIC) E. cloacae ATCC 13047 of at least 64 µg/mL. The Antibacterial activity (MIC) P. aeruginosa ATCC 27853 in [7] is at least 64 µg/mL. The same compound showed an Antibacterial activity (MIC) K. pneumoniae NR-15410 (KPC) in data set [8] of at least 64 µg/mL. For the same compound, the Antibacterial activity (MIC) K. pneumoniae NR-15411 (KPC) in [9] is at least 64 µg/mL. Moreover, in data set [10], the Antibacterial activity (MIC) P. aeruginosa PA01 was at least 64 µg/mL. Also, the “Antibacterial activity (MIC) P. aeruginosa X13273” value in data set [11] was “>=64”. Further, the “Antibacterial activity (MIC) E. faecium EF1509 (VRE)” value in data set [12] came out at 16. Also, in [13], the “Antibacterial activity (MIC) A. baumanii ATCC 19606” value was “>=64”. In [14], the “CC50% (72 h HeLa cells)” value stood at 2.2.

With `CCc1ccc(-c2cc(/C=C/c3cn(C)c4ccccc34)[o+]c(-c3ccc(CC)cc3)c2)cc1.F[B-](F)(F)F` [6jc66-2], the dissociation constant Kd in data set [1] came to 1.6 ± 0.2 µM. Besides, in data set [2], the Antibacterial activity (MIC) E. aerogenes ATCC 13048 is at least 64 µg/mL. In addition, in data set [3], the “Antibacterial activity (MIC) E. faecium F118 (VRE)” value worked out at 5.66. In data set [4], this compound returned an Antibacterial activity (MIC) S. aureus MRSA 1094 of 4 µg/mL. The compound also returned an Antibacterial activity (MIC) S. aureus HFH-30123 (MRSA) in data set [5] of 4 µg/mL. The same compound had an Antibacterial activity (MIC) E. cloacae ATCC 13047 in data set [6] of at least 64 µg/mL. Further, the Antibacterial activity (MIC) P. aeruginosa ATCC 27853 in data set [7] is at least 64 µg/mL. For the same compound, the Antibacterial activity (MIC) K. pneumoniae NR-15410 (KPC) in [8] is 64 µg/mL. In data set [9], this compound came in with an Antibacterial activity (MIC) K. pneumoniae NR-15411 (KPC) of at least 64 µg/mL. Moreover, the Antibacterial activity (MIC) P. aeruginosa PA01 in [10] is at least 64 µg/mL. Also, the “Antibacterial activity (MIC) P. aeruginosa X13273” value in data set [11] is given as “>=64”. For the same compound, in data set [12], the “Antibacterial activity (MIC) E. faecium EF1509 (VRE)” value stood at 4. In addition, in data set [13], the “Antibacterial activity (MIC) A. baumanii ATCC 19606” value was found to be 64. In addition, the “CC50% (72 h HeLa cells)” value in [14] came to 1.42.

By Kd is commonly meant the concentration at which binding is half-saturated. Read a high Kd as lower affinity.
